Test system: Human immunodeficiency virus 1
Assay: Inhibition of HIV-1 replication in human peripheral blood mononuclear cells.
Assay type: functional, organism-based

| Structure (SMILES) | EC50 [µM] |
| --- | --- |
| [N-]=[N+]=N[C@H]1C[C@H](n2cc(C(F)(F)F)c(=O)[nH]c2=O)O[C@@H]1CO | > 100 |
| [N-]=[N+]=N[C@H]1C[C@H](n2cc(Br)c(=O)[nH]c2=O)O[C@@H]1CO | 1 |
| Cc1cn([C@H]2C[C@H](N=[N+]=[N-])[C@@H](CO)O2)c(=O)nc1N | 5.1 |
| [N-]=[N+]=N[C@H]1C[C@H](n2cc(F)c(N)nc2=O)O[C@@H]1CO | 1 |
| [N-]=[N+]=N[C@H]1C[C@H](n2ccc(N)nc2=O)O[C@@H]1CO | 1.2 |
| [N-]=[N+]=N[C@H]1C[C@H](n2cc(F)c(=O)[nH]c2=O)O[C@@H]1CO | 4.8 |
| [N-]=[N+]=N[C@@H]1CC(n2cc(I)c(=O)[nH]c2=O)O[C@@H]1CO (some centres not stated) | 1.1 |
| COc1cn([C@H]2C[C@H](N=[N+]=[N-])[C@@H](CO)O2)c(=O)[nH]c1=O | 70 |
| CSc1cn([C@H]2C[C@H](N=[N+]=[N-])[C@@H](CO)O2)c(=O)[nH]c1=O | > 100 |
| [N-]=[N+]=N[C@H]1C[C@H](n2cc(O)c(=O)[nH]c2=O)O[C@@H]1CO | ~10 |
| Cc1nn([C@H]2C[C@H](N=[N+]=[N-])[C@@H](CO)O2)c(=O)[nH]c1=O | > 100 |
| Cc1cn([C@H]2C[C@H](N=[N+]=[N-])[C@@H](CO)O2)c(=O)n(/C=C/C=O)c1=O | 0.01 |
| N#CSc1cn([C@H]2C[C@H](N=[N+]=[N-])[C@@H](CO)O2)c(=O)[nH]c1=O | 5.1 |
| N#CCOc1cn([C@H]2C[C@H](N=[N+]=[N-])[C@@H](CO)O2)c(=O)[nH]c1=O | 16 |
| C=CCOc1cn([C@H]2C[C@H](N=[N+]=[N-])[C@@H](CO)O2)c(=O)[nH]c1=O | > 100 |
| C#CCOc1cn([C@H]2C[C@H](N=[N+]=[N-])[C@@H](CO)O2)c(=O)[nH]c1=O | 38 |
| CCOc1cn([C@H]2C[C@H](N=[N+]=[N-])[C@@H](CO)O2)c(=O)[nH]c1=O | 54 |
| [N-]=[N+]=N[C@H]1C[C@H](n2cc(N)c(=O)[nH]c2=O)O[C@@H]1CO | 6.2 |
| CNc1cn([C@H]2C[C@H](N=[N+]=[N-])[C@@H](CO)O2)c(=O)[nH]c1=O | > 100 |
| CN(C)c1cn([C@H]2C[C@H](N=[N+]=[N-])[C@@H](CO)O2)c(=O)[nH]c1=O | > 100 |
| [N-]=[N+]=N[C@H]1C[C@H](n2ccc(=O)[nH]c2=O)O[C@@H]1CO [NAVURIDINE] | 0.2 |
| Cc1cn([C@H]2C[C@H](N=[N+]=[N-])[C@@H](CO)O2)c(=O)[nH]c1=O [ZIDOVUDINE] | 0.002 |

Reference: ChEMBL document CHEMBL1124028, “Synthesis and antiviral activity of various 3'-azido analogues of pyrimidine deoxyribonucleosides against human immunodeficiency virus (HIV-1, HTLV-III/LAV)” (J Med Chem, 1988)
